Test results taken from the supplement of paper PMC10307832.

Columns and labels:
Assay in all cases: relative viability (nuclei count vs DMSO), 5 days (fraction); higher = more cells survive
[1] = compound: C=CCc1cccc(/C=N/NC(=O)CN2CCN(Cc3ccccc3)CC2)c1O [PAC-1] + CS(=O)(=O)N1CCN(Cc2cc3nc(-c4cccc5[nH]ncc45)nc(N4CCOCC4)c3s2)CC1 [Pictilisib] (partner 1 µM)
Outline: (§1)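 Nuclei were stained with Hoechst during a one-step fixation (final 0.05% Triton X-100, 1% formaldehyde, 1 ug/ml Hoechst) carried out 5 days after dosing, then counted on 4× images. The cells, lung cancer lines in 1536-well plates, had been dosed by pin tool the day after seeding with one drug alone or a fixed anchor-drug dose plus five library-drug doses (not always all listed) in √10 steps. Relative viability is the nuclei count in treated wells divided by that in vehicle wells, and each value is the median of duplicate plates.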

[2] = compound: C=CC(=O)Nc1cc(-n2c(=O)ccc3cnc4ccc(-c5ccc(NS(C)(=O)=O)cc5)cc4c32)ccc1C [BMX-IN-1] + COc1cccc2cc(-c3nc([C@H]4CC[C@H](C(=O)O)CC4)n4ncnc(N)c34)[nH]c12 [OSI-027] (partner 0.5 µM)
Outline: as §1

[3] = compound: C=CC(=O)N1CCC[C@@H](n2nc(-c3ccc(Oc4ccccc4)cc3)c3c(N)ncnc32)C1 [Ibrutinib] + Cc1cc(Nc2cc(N3CCN(C)CC3)nc(Sc3ccc(NC(=O)C4CC4)cc3)n2)n[nH]1 [Tozasertib] (partner 0.1 µM)
Outline: as §1

[4] = compound: C=CCc1cccc(/C=N/NC(=O)CN2CCN(Cc3ccccc3)CC2)c1O [PAC-1] + O=C(CCCCCCC(=O)Nc1ccccc1)NO [Vorinostat] (partner 1 µM)
Outline: as §1

| Cell Line | relative viability ([1]; first compound 0.02 µM) | relative viability ([1]; first compound 0.06325 µM) | relative viability ([1]; first compound 0.2 µM) | relative viability ([1]; first compound 2 µM) | relative viability ([2]; first compound 0.02 µM) | relative viability ([2]; first compound 0.2 µM) | relative viability ([2]; first compound 0.6325 µM) | relative viability ([2]; first compound 2 µM) | relative viability ([3]; first compound 0.005 µM) | relative viability ([3]; first compound 0.01581 µM) | relative viability ([3]; first compound 0.05 µM) | relative viability ([3]; first compound 0.1581 µM) | relative viability ([3]; first compound 0.5 µM) | relative viability ([4]; first compound 0.02 µM) | relative viability ([4]; first compound 0.06325 µM) | relative viability ([4]; first compound 0.2 µM) | relative viability ([4]; first compound 2 µM) |
| --- | --- | --- | --- | --- | --- | --- | --- | --- | --- | --- | --- | --- | --- | --- | --- | --- | --- |
| NCI-H1944 | 0.3 | 0.345 | 0.323 | 0.33 | 0.417 | 0.405 | 0.502 | 0.452 | 0.247 | 0.217 | 0.21 | 0.24 | 0.198 | 0.537 | 0.555 | 0.542 | 0.642 |
| NCI-H460 | 0.281 | 0.405 | 0.355 | 0.39 | 1.46 | 1.16 | 1.16 | 0.691 | 0.716 | 0.321 | 0.519 | 0.409 | 0.494 | 0.755 | 0.75 | 0.642 | 0.707 |
| NCI-H358 | 0.355 | 0.396 | 0.376 | 0.367 | 0.942 | 0.79 | 1.04 | 0.75 | 0.103 |  | 0.0879 | 0.12 | 0.0917 | 0.645 | 0.665 | 0.706 | 0.674 |
| NCI-H596 | 0.424 | 0.423 | 0.341 | 0.422 | 0.924 | 0.856 | 0.781 | 0.81 |  | 0.922 | 0.858 | 0.943 | 0.722 | 0.619 | 0.603 | 0.643 | 0.741 |
| NCI-H322M | 0.4 | 0.513 | 0.499 | 0.332 | 0.581 | 0.534 | 0.618 | 0.502 | 0.426 | 0.459 | 0.415 | 0.474 | 0.354 | 0.749 | 0.907 | 1.04 | 0.828 |
| H3255 | 0.454 | 0.455 | 0.448 | 0.471 | 0.635 | 0.658 | 0.578 | 0.518 | 0.729 | 0.615 | 0.581 | 0.672 | 0.312 | 0.923 | 0.762 | 0.87 | 0.593 |
| COR-L23 | 0.853 | 0.848 | 0.644 | 0.855 | 1.01 | 0.945 | 1.01 | 0.754 | 0.209 | 0.214 | 0.247 | 0.227 | 0.181 | 0.415 | 0.429 |  | 0.364 |
| NCI-H2126 | 0.43 | 0.478 | 0.495 | 0.49 | 0.696 | 0.703 | 0.872 | 0.664 | 0.701 | 0.811 | 0.792 | 0.818 | 0.755 | 0.733 | 0.785 | 0.803 | 0.763 |
| NCI-H1993 | 0.696 | 0.881 | 0.844 | 0.823 | 0.546 | 0.6 | 0.489 | 0.476 | 0.594 | 0.529 | 0.541 | 0.566 | 0.524 | 0.821 | 0.895 | 0.658 | 0.652 |
| NCI-H1915 | 0.875 | 1.02 | 0.929 | 0.951 | 0.647 | 0.714 | 0.805 | 0.619 | 0.498 | 0.439 | 0.447 | 0.485 | 0.428 | 0.507 | 0.506 | 0.427 | 0.562 |
| NCI-H727 | 0.338 | 0.525 | 0.453 | 0.283 | 0.846 | 0.597 | 0.648 | 0.612 | 0.542 | 0.578 | 0.624 |  | 0.533 | 1.09 | 1.1 | 1.06 | 1.13 |
| NCI-H1734 | 0.446 | 0.448 | 0.431 | 0.468 | 0.709 | 0.64 | 0.632 | 0.621 | 0.272 | 0.245 | 0.299 | 0.257 | 0.257 | 0.825 | 0.792 | 0.767 | 0.895 |
| A-427 | 0.689 | 0.748 | 0.724 | 0.831 | 0.448 | 0.417 | 0.501 | 0.461 | 0.22 | 0.185 | 0.281 | 0.23 | 0.212 | 0.891 | 0.889 | 0.86 | 0.8 |
| NCI-H2170 | 0.28 | 0.315 | 0.362 | 0.27 | 0.735 | 0.803 | 0.79 | 0.769 | 0.676 | 0.748 | 0.519 | 0.63 | 0.23 | 0.894 | 0.809 | 0.795 | 0.775 |
| NCI-H1437 | 0.495 | 0.474 | 0.415 | 0.391 | 1.05 | 0.912 | 0.916 | 0.845 | 0.437 | 0.373 | 0.472 | 0.403 | 0.391 | 0.831 | 0.816 | 0.717 | 0.563 |
| PC-3 [JPC-3] | 0.736 | 0.77 | 0.732 | 0.787 | 0.783 | 0.887 | 0.84 | 0.793 | 0.872 | 0.772 | 0.873 | 0.99 | 0.681 | 0.82 | 0.915 | 1.06 | 0.832 |
| 201T | 0.561 | 0.702 | 0.75 | 0.672 | 0.805 | 0.985 | 0.798 | 0.824 | 0.984 | 0.916 | 0.971 | 0.959 | 0.849 | 0.957 | 0.949 | 1.09 | 1.05 |
| PC-14 | 0.667 | 0.681 | 0.623 | 0.677 | 1.46 | 1.19 | 0.994 | 0.0726 | 0.646 | 0.536 | 0.568 | 0.556 | 0.452 | 0.816 | 0.764 | 0.629 | 0.743 |
